Consider one compound from US9296687B2, “Modulators of HSP70/DnaK function and methods of use thereof” (The Trustees of the University of Pennsylvania, priority 2008, dated 2016).

One data set relates to FADU cells. In words: Guava Nexin assay (Annexin V / 7-AAD). As to conditions: 10 μM, 24, 48 and 72 hours. Type of data set: cell-based, human. From the text: (§1) The effect of PES-Cl on apoptosis was observed using Guana Nexin Reagent (Millipore) in H1299 and FaDu cells. The Guana Nexin Assay utilizes Annexin V-PE to detect phosphatidylserine (PS) on the external membrane of apoptotic cells. The cell impermeant dye, 7-AAD, is also used in the Guava Nexin Assay as an indicator of cell membrane structural integrity. 7-AAD is excluded from live, healthy cells as wells as early apoptotic cells. Three populations of cells can be distinguished in the assay: Non-Apoptotic cells (Annexin V(−) and 7-AAD(−)), Early Apoptotic cells (Annexin V(+) and 7-AAD(−)), and Late Stage Apoptotic and dead cells (Annexin V(+) and 7-AAD(+)). The H1299 and FaDu cells were seeded on 24-well plates and treated with 10 μM PES or 10 μM PES-Cl. DMSO treated cells were used as a vehicle control. Four, 24 and 48 hours post-treatment, the H1299 cells were washed with PBS and trypsinized. For FaDu cells, the time course was 24, 48 and 72 hours. The cells were pelleted and resuspended in Guava Nexin reagent as per the manufacturer instructions and the readings were obtained with a Guava reader (Guava Technologies, Millipore). The total number of cells that were in Late Stage Apoptosis or dead (by necrotic or apoptotic mechanisms) was analyzed in density plots to determine as Annexin V positive.

Data set [1] has as its system H1299 cells. The experiment in a line: Guava Nexin assay (Annexin V / 7-AAD). As to conditions: 10 μM, 4, 24 and 48 hours. The format is cell-based, human.
From the text: as §1

For data set [2], the system named is H1299 and FaDu; 6113 and WI38. The experiment in a line: MTT assay, tumorogenic versus normal fibroblast cell lines. Conditions: various concentrations, 48 hours. Type of data set: cell-based, human. How it is done:
(§2) H1299 cells were seeded on […] and treated with 10 μM PES or 10 μM PES-Cl. DMSO treated cells were used as a control and the proliferation of the H1299 cells was observed over 24 and 48 hours of treatment. The cells were imaged by light microscopy with 20× magnification (FIG. 28). Non-tumorogenic and tumorogenic cells were then treated with PES-Cl to observe its toxicity and effect on proliferation. Two tumorogenic cell lines (H1299 and FaDu) and two normal fibroblast cell lines (6113 and WI38) were seeded on a 96-well plate. The cells were treated with various concentrations of PES and PES-Cl. Forty-eight hours post-treatment MTT assays (Cayman Chemical Company) were performed (FIG. 29).
In general terms: Tetrazolium assays rely on reduction of a dye to a coloured formazan, in cell work by metabolically active cells.

In a further data set the test system is Eμ-Myc transgenic mice. In words: Eμ-Myc mouse model of lymphomagenesis. Type of data set: in vivo. Conditions: 20 mg/kg weekly i.p. from 6 weeks of age. How it is done:
To evaluate the efficacy of PES as a chemopreventative agent, Eμ-Myc transgenic mice were injected every 5 days, starting at 8 weeks of age, with either vehicle or PES (40 mg/kg) prepared in PBS. All animals received a total of 7 injections, either with PES or vehicle. Consequently, no injection was given after day 86. All mice were observed daily for signs of morbidity and the development of lymphoma. All experiments with mice were approved by, and conformed to, the guidelines of the Institutional Animal Care and Use Committee of the Fox Chase Cancer Center. These mice may also be used to advantage to test the beneficial therapeutic combinations of agents and/or treatments described herein.
Beginning at 6 weeks of age, Eμ-myc transgenic mice were treated either with vehicle, 20 mg/kg PES or 20 mg/kg PES-Cl with weekly i.p. injections of tested compound (FIG. 27).

Another data set has as its system Scc56 cell line. The experiment in a line: MTT cell viability assay, PES-Cl with Temsirolimus. Type of data set: cell-based, human. As to conditions: singly and together, varying concentrations. The protocol: PES-Cl was tested in combination with Temsirolimus, an mTOR inhibitor, to determine whether they act synergistically to kill cells. Head and neck cancer cells of the Scc56 cell line were treated with PES-Cl and Temsirolimus, singly and together, at varying concentrations utilizing an MTT assay.

Data set [3] relates to SKBR3 human breast adenocarcinoma cells. The experiment in a line: MTT assay. Type of data set: cell-based. As to conditions: various concentrations, 72 hours. The protocol: SKBR3 human breast adenocarcinoma cells were seeded and treated with PES and PES-Cl at various concentrations.
Data set [4] relates to H1299 cells. In words: Proliferation observed by light microscopy. Conditions: 10 μM, 24 and 48 hours. The format is cell-based, human. The protocol:
as §2

Another data set deals with HSP70 (Homo sapiens, UniProt P0DMV8). The experiment in a line: Capture of HA-tagged HSP70 constructs from transfected H1299 cells with biotinylated compound. The format is binding. Set-up: expressed in transfected cells; host or cells: H1299. As to conditions: biotinylated compound, 6 hours. How it is done: FIG. 1. PES Binds to HSP70. (A) Whole cell extracts (WCE) prepared from A875 and BCL-xL over-expressing U2OS human osteosarcoma cells (BX-U2OS) cells, treated with Biotin or Biotin-PES (B-PES), were captured using NeutrAvidin agarose resins. HSP70-family proteins were identified as the major product in the excised band of ˜70 kDa shown in both Coomassie gels. (B and C) WCE were prepared from the cell lines indicated following 24 h treatment with 20 μM Biotin or B-PES and examined for the expression of proteins indicated (left panel of B and C) by western blot analysis; note that different exposure times were used to visualize these proteins. […] (D) In vitro evidence for an interaction between B-PES and HSP70. Full-length human HSP70 and human HSP90 proteins were in vitro translated in the presence of ^35S-methionine, mixed with B-PES coupled to NeutrAvidin resins, and eluted using 100 mM DTT. The resulting DTT eluates were separated by polyacrylamide gel electrophoresis (SDS-PAGE) and visualized by autoradiography. (E) B-PES interacts with the C-terminal region of HSP70. H1299 cells were transfected with the indicated hemagglutinin (HA)-tagged constructs and exposed to B-PES. B-PES containing complexes were captured by NeutrAvidin Resins, eluted following 100 mM DTT treatment, and immunoblotted with anti-HA antibody following SDS-PAGE. (F) Non-transformed human IMR90 fibroblasts or H1299 lung carcinoma cells were treated with the indicated concentrations of PES for 24 h and cell viability was determined by MTT assays. (G) WCE were prepared from the cell lines indicated following 5 hr treatment with 20 μM PES or B-PES and examined for the expression of proteins indicated (left panel) by western blot analysis; note that different exposure times were used to visualize these proteins. B-PES-containing complexes were captured by NeutrAvidin resins, eluted following 50 mM DTT treatment, and immunoblotted using the indicated antibodies.
The free amide group of PES-Cl was biotinylated and added to HA-tagged HSP70-transfected H1299 cells. The treatment of the cells occurred for 6 hours. The complexes were pulled down with NeutrAvidin beads, eluted with 100 mM DTT treatments, separated with SDS-PAGE and detected with anti-HA antibody (Millipore) by Western blot.
Docking studies were performed using the C-terminal HSP70 crystal structure (FIG. 32) to elucidate the PES binding site in silico (FIG. 33). Blind docking methods were used in the program AutoDock to locate potential PES binding sites. These methods use a course grid docking approach, encompassing the entire protein, to identify favorable binding sites using a known binding ligand, and are examined by hand to support the AutoDock data. […]

Another data set concerns H1299 and FaDu cells. In words: Western blot of autophagy and apoptosis markers. The format is cell-based, human. As to conditions: 10 μM, 24, 48 and 72 hours. The protocol: Tumorogenic cells H1299 and FaDu cells were seeded in 10 cm plates and were treated with 10 μM PES or 10 μM PES-Cl. DMSO treated cells were used as a vehicle treated control. Twenty-four, 48 and 72 hours post-treatment the cells were scrapped and protein extracts were generated. Western blotting was performed as described hereinabove. The antibodies used in the protocol were p62 (Santa Cruz), Hsp70 (Cell Signaling), cleaved lamin A (Cell Signaling), Hsp40 (Cell Signaling), γH2A.X (Millipore), and actin (Sigma).
A general note: Immunoblotting shows a protein as a band on a membrane.

SMILES strings stand for the structures. “Also recorded” adds a separate entry of the source.

HSP70, sequence (P0DMV8 2-641): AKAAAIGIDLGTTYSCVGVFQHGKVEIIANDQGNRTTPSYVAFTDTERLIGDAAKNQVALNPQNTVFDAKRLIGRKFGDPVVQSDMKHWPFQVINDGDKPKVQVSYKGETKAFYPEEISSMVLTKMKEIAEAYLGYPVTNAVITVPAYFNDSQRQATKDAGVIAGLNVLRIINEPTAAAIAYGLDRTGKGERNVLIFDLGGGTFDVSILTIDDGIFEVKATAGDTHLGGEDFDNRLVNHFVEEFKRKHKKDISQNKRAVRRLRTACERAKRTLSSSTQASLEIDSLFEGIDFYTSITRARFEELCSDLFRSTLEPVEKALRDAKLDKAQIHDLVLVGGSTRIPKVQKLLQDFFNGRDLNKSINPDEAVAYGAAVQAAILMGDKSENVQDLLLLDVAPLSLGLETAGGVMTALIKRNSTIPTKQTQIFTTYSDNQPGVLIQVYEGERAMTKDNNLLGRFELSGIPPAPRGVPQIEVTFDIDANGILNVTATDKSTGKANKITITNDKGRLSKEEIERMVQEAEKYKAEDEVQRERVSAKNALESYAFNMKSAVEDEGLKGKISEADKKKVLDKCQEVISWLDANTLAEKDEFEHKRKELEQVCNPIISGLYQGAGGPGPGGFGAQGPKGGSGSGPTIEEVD

For `NS(=O)(=O)C#Cc1cccc(Cl)c1` [PES-Cl, 2-(3-chlorophenyl)-ethynesulfonamide], in the data set on FADU cells, the “apoptosis and cell death (Annexin V positive cells)” value is “induced apoptosis and cell death; also recorded: superior compound for induction of apoptosis”. In addition, in the data set with H1299 cells [1], the “apoptosis and cell death (Annexin V positive cells)” value was “induced apoptosis and cell death; also recorded: superior compound for induction of apoptosis”. For the same compound, the “cell survival, tumorogenic versus non-tumorogenic cells” value in data set [2] is “greater concentration dependent effect on cell survival in tumorogenic cells; also recorded: superior and specific inhibitor of proliferation of tumor cells with limited toxicity to normal cells”. For the same compound, the survival entry with Eμ-Myc transgenic mice is reported as “extended survival”. The “combination effect with Temsirolimus” value in the data set on Scc56 cell line is on record as “synergistic effect resulting in enhanced dose-dependent cytotoxicity”. In addition, the “cytotoxicity compared to PES” value in data set [3] is “superior cytotoxic agent when compared to PES”. In addition, in the data set with H1299 cells [4], the proliferation entry is “inhibits the proliferation of H1299 cells”. The “interaction with HA-tagged HSP70” value at HSP70 is “interact with HSP70”. In the data set on H1299 and FaDu cells, the apoptosis result is on record as “induced apoptosis” and the autophagy entry is listed as “inhibited autophagy”.
